Experiment: xn = mol fraction of the nth substance listed
Settings: 101 kPa, Liquid; for viscosity: Capillary tube (Ostwald / Ubbelohde) method

CC(=O)O [acetic acid] + CN(C)C=O
Settings | mass density [kg/m3] | viscosity [mPa·s]
303.15 K, x1 = 0.1004 | 950.1 | 0.847
303.15 K, x1 = 0.2009 | 961.18 | 0.967
303.15 K, x1 = 0.3012 | 972.65 | 1.108
303.15 K, x1 = 0.4014 | 984.49 | 1.283
303.15 K, x1 = 0.5014 | 996.33 | 1.457
303.15 K, x1 = 0.6014 | 1007.74 | 1.613
303.15 K, x1 = 0.7011 | 1018.12 | 1.656
303.15 K, x1 = 0.8008 | 1027.13 | 1.582
303.15 K, x1 = 0.9006 | 1034.47 | 1.375
303.15 K, x1 = 1 | 1038.66 | 1.059
313.15 K, x1 = 0.1004 | 940.75 | 0.75
313.15 K, x1 = 0.2009 | 951.76 | 0.848
313.15 K, x1 = 0.3012 | 963.18 | 0.973
313.15 K, x1 = 0.4014 | 974.95 | 1.112
313.15 K, x1 = 0.5014 | 986.68 | 1.249
313.15 K, x1 = 0.6014 | 997.98 | 1.357
313.15 K, x1 = 0.7011 | 1008.11 | 1.39
313.15 K, x1 = 0.8008 | 1016.84 | 1.331
313.15 K, x1 = 0.9006 | 1023.84 | 1.166
313.15 K, x1 = 1 | 1027.37 | 0.92
323.15 K, x1 = 0.1004 | 931.27 | 0.669
323.15 K, x1 = 0.2009 | 942.27 | 0.752
323.15 K, x1 = 0.3012 | 953.63 | 0.85
323.15 K, x1 = 0.4014 | 965.33 | 0.965
323.15 K, x1 = 0.5014 | 976.95 | 1.071
323.15 K, x1 = 0.6014 | 988.11 | 1.157
323.15 K, x1 = 0.7011 | 998.02 | 1.18
323.15 K, x1 = 0.8008 | 1006.49 | 1.132
323.15 K, x1 = 0.9006 | 1013.13 | 1.002
323.15 K, x1 = 1 | 1016.08 | 0.804
333.15 K, x1 = 0.1004 | 921.19 | 0.597
333.15 K, x1 = 0.2009 | 932.18 | 0.673
333.15 K, x1 = 0.3012 | 943.49 | 0.755
333.15 K, x1 = 0.4014 | 955.11 | 0.843
333.15 K, x1 = 0.5014 | 966.55 | 0.935
333.15 K, x1 = 0.6014 | 977.59 | 0.998
333.15 K, x1 = 0.7011 | 987.28 | 1.015
333.15 K, x1 = 0.8008 | 995.48 | 0.976
333.15 K, x1 = 0.9006 | 1001.78 | 0.87
333.15 K, x1 = 1 | 1005.04 | 0.709
343.15 K, x1 = 0.1004 | 911.56 | 0.547
343.15 K, x1 = 0.2009 | 922.54 | 0.607
343.15 K, x1 = 0.3012 | 933.82 | 0.674
343.15 K, x1 = 0.4014 | 945.35 | 0.749
343.15 K, x1 = 0.5014 | 956.68 | 0.824
343.15 K, x1 = 0.6014 | 967.55 | 0.873
343.15 K, x1 = 0.7011 | 977.06 | 0.885
343.15 K, x1 = 0.8008 | 984.99 | 0.852
343.15 K, x1 = 0.9006 | 990.93 | 0.764
343.15 K, x1 = 1 | 993.69 | 0.632
353.15 K, x1 = 0.1004 | 901.58 | 0.499
353.15 K, x1 = 0.2009 | 912.55 | 0.551
353.15 K, x1 = 0.3012 | 923.82 | 0.608
353.15 K, x1 = 0.4014 | 935.28 | 0.67
353.15 K, x1 = 0.5014 | 946.48 | 0.73
353.15 K, x1 = 0.6014 | 957.19 | 0.771
353.15 K, x1 = 0.7011 | 966.49 | 0.78
353.15 K, x1 = 0.8008 | 974.17 | 0.751
353.15 K, x1 = 0.9006 | 979.73 | 0.677
353.15 K, x1 = 1 | 982.95 | 0.57

O=CO [formic acid] + CN(C)C=O
Settings | mass density [kg/m3] | viscosity [mPa·s]
303.15 K, x1 = 0.1001 | 953.65 | 0.831
303.15 K, x1 = 0.2 | 969.23 | 0.93
303.15 K, x1 = 0.3001 | 986.66 | 1.048
303.15 K, x1 = 0.4 | 1006.16 | 1.186
303.15 K, x1 = 0.4999 | 1027.99 | 1.324
303.15 K, x1 = 0.6003 | 1053.17 | 1.466
303.15 K, x1 = 0.7005 | 1081.71 | 1.555
303.15 K, x1 = 0.7998 | 1115.25 | 1.562
303.15 K, x1 = 0.9002 | 1157.02 | 1.533
303.15 K, x1 = 1 | 1205.07 | 1.437
313.15 K, x1 = 0.1001 | 943.97 | 0.738
313.15 K, x1 = 0.2 | 959.57 | 0.815
313.15 K, x1 = 0.3001 | 977.07 | 0.92
313.15 K, x1 = 0.4 | 996.43 | 1.028
313.15 K, x1 = 0.4999 | 1018.12 | 1.143
313.15 K, x1 = 0.6003 | 1043.03 | 1.253
313.15 K, x1 = 0.7005 | 1071.28 | 1.313
313.15 K, x1 = 0.7998 | 1104.39 | 1.342
313.15 K, x1 = 0.9002 | 1145.58 | 1.33
313.15 K, x1 = 1 | 1192.81 | 1.205
323.15 K, x1 = 0.1001 | 934.86 | 0.662
323.15 K, x1 = 0.2 | 950.34 | 0.725
323.15 K, x1 = 0.3001 | 967.77 | 0.808
323.15 K, x1 = 0.4 | 986.86 | 0.898
323.15 K, x1 = 0.4999 | 1008.39 | 0.992
323.15 K, x1 = 0.6003 | 1033.04 | 1.076
323.15 K, x1 = 0.7005 | 1060.99 | 1.121
323.15 K, x1 = 0.7998 | 1093.73 | 1.14
323.15 K, x1 = 0.9002 | 1134.05 | 1.117
323.15 K, x1 = 1 | 1180.63 | 1.022
333.15 K, x1 = 0.1001 | 924.58 | 0.59
333.15 K, x1 = 0.2 | 939.91 | 0.649
333.15 K, x1 = 0.3001 | 957.33 | 0.72
333.15 K, x1 = 0.4 | 976.15 | 0.793
333.15 K, x1 = 0.4999 | 997.5 | 0.867
333.15 K, x1 = 0.6003 | 1021.94 | 0.933
333.15 K, x1 = 0.7005 | 1049.51 | 0.971
333.15 K, x1 = 0.7998 | 1081.77 | 0.982
333.15 K, x1 = 0.9002 | 1121.74 | 0.959
333.15 K, x1 = 1 | 1167.44 | 0.879
343.15 K, x1 = 0.1001 | 915.36 | 0.538
343.15 K, x1 = 0.2 | 930.7 | 0.587
343.15 K, x1 = 0.3001 | 947.93 | 0.643
343.15 K, x1 = 0.4 | 966.58 | 0.708
343.15 K, x1 = 0.4999 | 987.75 | 0.768
343.15 K, x1 = 0.6003 | 1011.92 | 0.823
343.15 K, x1 = 0.7005 | 1039.13 | 0.85
343.15 K, x1 = 0.7998 | 1070.96 | 0.857
343.15 K, x1 = 0.9002 | 1110.03 | 0.835
343.15 K, x1 = 1 | 1154.99 | 0.766
353.15 K, x1 = 0.1001 | 905.11 | 0.492
353.15 K, x1 = 0.2 | 920.26 | 0.534
353.15 K, x1 = 0.3001 | 937.3 | 0.582
353.15 K, x1 = 0.4 | 955.9 | 0.635
353.15 K, x1 = 0.4999 | 976.91 | 0.693
353.15 K, x1 = 0.6003 | 1000.84 | 0.732
353.15 K, x1 = 0.7005 | 1027.78 | 0.754
353.15 K, x1 = 0.7998 | 1059.18 | 0.756
353.15 K, x1 = 0.9002 | 1097.86 | 0.736
353.15 K, x1 = 1 | 1142.08 | 0.677
